Assay results as given in patent publication US20260053171A1, “METHANOGEN INHIBITORS” (AGRIZERONZ LIMITED PARTNERSHIP, priority 2022, published 2026).

System: methane production in rumen fluid
Test: Rumen in vitro (RIV) assay, methane production from rumen fluid incubations
Assay type: cell-based, cattle
Conditions: Bos taurus, read-out: RIV % methane reduction +/− SD
How it was run: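 Rumen fluid from two fistulated cattle diluted 12 ml in 48 ml buffer with ryegrass substrate, incubated in sealed bottles at 39° C for 24-48 h in duplicate. Inhibitors added in DMF (stocks 1000-fold above highest assay level); total gas, methane and H2 measured automatically; 30 μM BES positive control, no-inhibitor negative control.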

Row | SMILES | inhibition at 10 µM [%] | inhibition at 50 µM [%] | inhibition at 2 µM [%]
1 | O=C(O)CCCN1N=C(c2ccc(Cl)cc2)CC1c1ccc2nccnc2c1 (stereo not shown) [Compound 53, 4-(3-(4-Chlorophenyl)-5-(quinoxalin-6-yl)-4,5-dihydro-1H-pyrazol-1-yl)butanoic acid] | 19.4 ± 1.9 | 82.1 ± 1.2 | –
2 | COc1cc(C2CC(c3ccc(Cl)cc3)=NN2C(=O)CCC(=O)O)ccc1F (stereo not shown) [Compound 48, 4-(3-(4-Chlorophenyl)-5-(4-fluoro-3-methoxyphenyl)-4,5-dihydro-1H-pyrazol-1-yl)-4-oxobutanoic acid] | – | 43.6 ± 4.5 | –
3 | CC(C)(C)c1ccc(-c2ccc(C3=NN(C(=O)CCC(=O)O)C(c4ccc5nccnc5c4)C3)cc2)cc1 (stereo not shown) [Compound 87, 4-(3-(4′-(tert-Butyl)-[1,1′-biphenyl]-4-yl)-5-(quinoxalin-6-yl)-4,5-dihydro-1H-pyrazol-1-yl)-4-oxobutanoic acid] | 6 ± 0.5 | – | –
4 | O=C(O)CCC(=O)N1N=C(c2ccc(-c3ccccc3)cc2)CC1c1ccc2nccnc2c1 (stereo not shown) [Compound 15, 4-(3-([1,1′-Biphenyl]-4-yl)-5-(quinoxalin-6-yl)-4,5-dihydro-1H-pyrazol-1-yl)-4-oxobutanoic acid] | 60.1 ± 1 | 87.8 ± 1.6 | < 5
5 | CN(C)S(=O)(=O)NC(=O)CCC(=O)N1N=C(c2ccc(OC(F)(F)F)cc2)CC1c1ccc2nccnc2c1 (stereo not shown) [Compound 126, N—(N,N-Dimethylsulfamoyl)-4-oxo-4-(5-(quinoxalin-6-yl)-3-(4-(trifluoromethoxy)phenyl)-4,5-dihydro-1H-pyrazol-1-yl) butanamide] | 25.5 ± 3.8 | – | –
6 | O=C(O)c1ccc(N2N=C(c3ccc(Cl)cc3)CC2c2ccc3nccnc3c2)cc1 (stereo not shown) [Compound 115, 4-(3-(4-Chlorophenyl)-5-(quinoxalin-6-yl)-4,5-dihydro-1H-pyrazol-1-yl)benzoic acid] | 20.1 ± 1.1 | 84 ± 10.6 | –
7 | CCCCOc1ccc(-c2ccc(C3=NN(C(=O)CCC(=O)O)C(c4ccc5nccnc5c4)C3)cc2)cc1 (stereo not shown) [Compound 80, 4-(3-(4′-Butoxy-[1,1′-biphenyl]-4-yl)-5-(quinoxalin-6-yl)-4,5-dihydro-1H-pyrazol-1-yl)-4-oxobutanoic acid] | 89.4 ± 2.5 | – | 21.9 ± 4.3
8 | O=C(O)CCC(=O)N1N=C(c2ccc(C3CCCCC3)cc2)CC1c1ccc2nccnc2c1 (stereo not shown) [Compound 4, 4-(3-(4-Cyclohexylphenyl)-5-(quinoxalin-6-yl)-4,5-dihydro-1H-pyrazol-1-yl)-4-oxobutanoic acid] | < 5 | 79.5 ± 4.4 | –
9 | COCc1ccc(-c2ccc(C3=NN(C(=O)CCC(=O)O)C(c4ccc5nccnc5c4)C3)cc2)cc1 (stereo not shown) [Compound 89, 4-(3-(4′-(Methoxymethyl)-[1,1′-biphenyl]-4-yl)-5-(quinoxalin-6-yl)-4,5-dihydro-1H-pyrazol-1-yl)-4-oxobutanoic acid] | 21.9 ± 7 | 85 ± 1.7 | –
10 | O=C(O)CCC(=O)N1N=C(c2ccc3nccnc3c2)CC1c1ccc(Cl)cc1 (stereo not shown) [Compound 77, 4-(5-(4-Chlorophenyl)-3-(quinoxalin-6-yl)-4,5-dihydro-1H-pyrazol-1-yl)-4-oxobutanoic acid] | – | 77 ± 0.4 | –
11 | O=C(O)CCC(=O)N1N=C2c3ccc(-c4ccccc4)cc3CCC2C1c1ccc2nccnc2c1 (stereo not shown) [Compound 75, 4-Oxo-4-(7-phenyl-3-(quinoxalin-6-yl)-3,3a,4,5-tetrahydro-2H-benzo[g]indazol-2-yl)butanoic acid] | 87.5 ± 0.6 | 92.8 ± 0.5 | 15.8 ± 4.5
12 | COc1cc(C2CC(c3ccc(Cl)cc3)=NN2C(=O)CCC(=O)O)ccc1O (stereo not shown) [Compound 45, 4-(3-(4-Chlorophenyl)-5-(4-hydroxy-3-methoxyphenyl)-4,5-dihydro-1H-pyrazol-1-yl)-4-oxobutanoic acid] | 9.9 ± 1.8 | 73.1 ± 8.6 | –
13 | O=C(O)CCC(=O)N1N=C(c2cccc(-c3cccc(OC(F)(F)F)c3)c2)CC1c1ccc2nccnc2c1 (stereo not shown) [Compound 98, 4-Oxo-4-(5-(quinoxalin-6-yl)-3-(3′-(trifluoromethoxy)-[1,1′-biphenyl]-3-yl)-4,5-dihydro-1H-pyrazol-1-yl)butanoic acid] | 15.6 ± 0.6 | 91 ± 2.7 | –
14 | COc1ccc(C2CC(c3ccc(Cl)cc3)=NN2C(=O)CCC(=O)O)cc1O (stereo not shown) [Compound 44, 4-(3-(4-Chlorophenyl)-5-(3-hydroxy-4-methoxyphenyl)-4,5-dihydro-1H-pyrazol-1-yl)-4-oxobutanoic acid] | – | 31.3 ± 0.8 | –
15 | CC(C)(C)C(=O)OCOC(=O)CCC(=O)N1N=C(c2ccc(Cl)cc2)CC1c1ccc2nccnc2c1 (stereo not shown) [Compound 54, (Pivaloyloxy)methyl 4-(3-(4-chlorophenyl)-5-(quinoxalin-6-yl)-4,5-dihydro-1H-pyrazol-1-yl)-4-oxobutanoate] | – | 23.8 ± 9.4 | –
16 | CS(=O)(=O)NC(=O)CCC(=O)N1N=C(c2ccc(-c3ccccc3)cc2)CC1c1ccc2nccnc2c1 (stereo not shown) [Compound 57, 4-(3-([1,1′-Biphenyl]-4-yl)-5-(quinoxalin-6-yl)-4,5-dihydro-1H-pyrazol-1-yl)-N-(methylsulfonyl)-4-oxobutanamide] | 62.7 ± 4.4 | 89.7 ± 0.5 | –

Row | SMILES | inhibition at 10 µM [%] | inhibition at 50 µM [%] | inhibition at 2 µM [%]
17 | O=C(O)CCC(=O)N1N=C(c2ccc(Cl)cc2)CC1c1ccc2cccnc2c1 (stereo not shown) [Compound 34, 4-(3-(4-Chlorophenyl)-5-(quinolin-7-yl)-4,5-dihydro-1H-pyrazol-1-yl)-4-oxobutanoic acid] | – | 22 ± 2.1 | –
18 | CC(C)S(=O)(=O)NC(=O)CCC(=O)N1N=C(c2ccc(Cl)cc2)CC1c1ccc2nccnc2c1 (stereo not shown) [Compound 58] | 80.4 ± 6.3 | 93.9 ± 4.7 | 6 ± 1.6
19 | CCCOc1ccc(-c2ccc(C3=NN(C(=O)CCC(=O)O)C(c4ccc5nccnc5c4)C3)cc2)cc1 (stereo not shown) [Compound 78, 4-Oxo-4-(3-(4′-propoxy-[1,1′-biphenyl]-4-yl)-5-(quinoxalin-6-yl)-4,5-dihydro-1H-pyrazol-1-yl)butanoic acid] | 88.8 ± 2 | – | 39.8 ± 18.5
20 | O=C(O)CCC(=O)N1N=C(c2ccc(-c3cc(Cl)cc(Cl)c3)cc2)CC1c1ccc2nccnc2c1 (stereo not shown) [Compound 28, 4-(3-(3′,5′-Dichloro-[1,1′-biphenyl]-4-yl)-5-(quinoxalin-6-yl)-4,5-dihydro-1H-pyrazol-1-yl)-4-oxobutanoic acid] | 84 ± 0.8 | 96.1 ± 0.1 | 8 ± 2.1
21 | O=C(O)CCC(=O)N1N=C(c2ccc(Cl)cc2)CC1c1cnc2ccccc2n1 (stereo not shown) [Compound 32, 4-(3-(4-Chlorophenyl)-5-(quinoxalin-2-yl)-4,5-dihydro-1H-pyrazol-1-yl)-4-oxobutanoic acid] | < 5 | 81 ± 2 | –
22 | O=C(O)CCC(=O)N1N=C(c2ccc(-c3ccc(Cl)c(Cl)c3)cc2)CC1c1ccc2nccnc2c1 (stereo not shown) [Compound 27, 4-(3-(3′,4′-Dichloro-[1,1′-biphenyl]-4-yl)-5-(quinoxalin-6-yl)-4,5-dihydro-1H-pyrazol-1-yl)-4-oxobutanoic acid] | 48.3 ± 7.5 | 92.1 ± 1.1 | –
23 | CC(C)Oc1ccc(-c2ccc(C3=NN(C(=O)CCC(=O)NS(=O)(=O)C(C)C)C(c4ccc5nccnc5c4)C3)cc2)cc1 (stereo not shown) [Compound 120, 4-(3-(4′-Isopropoxy-[1,1′-biphenyl]-4-yl)-5-(quinoxalin-6-yl)-4,5-dihydro-1H-pyrazol-1-yl)-N-(isopropylsulfonyl)-4-oxobutanamide] | 70.4 ± 5.5 | – | 12.6 ± 1.4
24 | O=C(O)CCC(=O)N1N=C(c2ccc(Br)cc2)CC1c1ccc2nccnc2c1 (stereo not shown) [Compound 9, 4-(3-(4-Bromophenyl)-5-(quinoxalin-6-yl)-4,5-dihydro-1H-pyrazol-1-yl)-4-oxobutanoic acid] | – | 64.9 ± 1.9 | –
25 | CC(C)COc1ccc(-c2ccc(C3=NN(C(=O)CCC(=O)O)C(c4ccc5nccnc5c4)C3)cc2)cc1 (stereo not shown) [Compound 82, 4-(3-(4′-Isobutoxy-[1,1′-biphenyl]-4-yl)-5-(quinoxalin-6-yl)-4,5-dihydro-1H-pyrazol-1-yl)-4-oxobutanoic acid] | 75.7 ± 4.6 | – | 9.3 ± 7.6
26 | O=C(CCC(=O)N1N=C(c2ccc(Cl)cc2)CC1c1ccc2nccnc2c1)NS(=O)(=O)N1CCCC1 (stereo not shown) [Compound 128, 4-(3-(4-Chlorophenyl)-5-(quinoxalin-6-yl)-4,5-dihydro-1H-pyrazol-1-yl)-4-oxo-N-(pyrrolidin-1-ylsulfonyl) butanamide] | 53 ± 5.7 | – | –
27 | O=C(O)CCC(=O)N1N=C(c2cccc(-c3ccccc3)c2)CC1c1ccc2nccnc2c1 (stereo not shown) [Compound 13, 4-(3-([1,1′-Biphenyl]-3-yl)-5-(quinoxalin-6-yl)-4,5-dihydro-1H-pyrazol-1-yl)-4-oxobutanoic acid] | 74.4 ± 3.3 | 97.2 ± 0.1 | 5 ± 0.4
28 | O=C(O)CCC(=O)N1N=C(c2ccccc2)CC1c1ccc2nccnc2c1 (stereo not shown) [Compound 1A, 4-Oxo-4-(3-phenyl-5-(quinoxalin-6-yl)-4,5-dihydro-1H-pyrazol-1-yl)butanoic acid] | – | < 5 | –
29 | CN(C)S(=O)(=O)NC(=O)CCC(=O)N1N=C(c2ccc(-c3ccccc3)cc2)CC1c1ccc2nccnc2c1 (stereo not shown) [Compound 71, 4-(3-([1,1′-Biphenyl]-4-yl)-5-(quinoxalin-6-yl)-4,5-dihydro-1H-pyrazol-1-yl)-N—(N,N-dimethylsulfamoyl)-4-oxobutanamide] | 70.7 | – | < 5
30 | CN(C)c1ccc(-c2ccc(C3=NN(C(=O)CCC(=O)O)C(c4ccc5nccnc5c4)C3)cc2)cc1 (stereo not shown) [Compound 95, 4-(3-(4′-(Dimethylamino)-[1,1′-biphenyl]-4-yl)-5-(quinoxalin-6-yl)-4,5-dihydro-1H-pyrazol-1-yl)-4-oxobutanoic acid] | 68.3 ± 2.1 | – | –
31 | O=C1NC(=O)C(CC(=O)N2N=C(c3ccc(Cl)cc3)CC2c2ccc3nccnc3c2)S1 (stereo not shown) [Compound 63, 5-(2-(3-(4-Chlorophenyl)-5-(quinoxalin-6-yl)-4,5-dihydro-1H-pyrazol-1-yl)-2-oxoethyl)thiazolidine-2,4-dione] | – | 43.6 ± 2.9 | –
